Test results as given in article PMC10816640, “Discovery of Novel Diphenyl Acrylonitrile Derivatives That Promote Adult Rats’ Hippocampal Neurogenesis” (International Journal of Molecular Sciences, 2024).
Entries after “also recorded” stand apart in the source; their conditions may differ.

Experiments:
Assay type in all cases: in vivo, rat
[1] = tested on: progenitor cells in the rodents’ hippocampi; assay: Proliferation stage of neurogenesis: BrdU labeling, rats sacrificed 24 h after BrdU; details: i.p. 4.0 mg/kg/day for 28 days, BrdU pulse, vs vehicle; for proliferation-promoting activity (number of BrdU+ newborn cells): eleven-week-old rats (n = 2)
Text: (§1) Previous in vitro or in vivo studies mainly focused on stimulating the proliferation effect of the small molecules. In this study, a two-step protocol was employed. First, the stimulating function of the compounds on progenitor cells in the rodents’ hippocampi was examined with using bromodeoxyuridine (BrdU) labeling. Next, the potent compounds were further screened to ascertain their ability to promote the differentiation of neural progenitor cells, as confirmed by dual labeling of BrdU and NeuN (neuronal nuclear antigen).
Adult rats were administered intraperitoneally with the prepared compounds at a dose of 4.0 mg/kg/day for a period of 28 days, followed by a BrdU pulse. After 24 h, the rats were sacrificed, and their brain tissues were isolated and cryosectioned. Immunohistochemical staining was performed and eight brain tissue slices were randomly selected for statistical analyzing.
Eight-week-old (or 10-week-old) SD male rats purchased from Peking University Health Science Center were acclimatized for one week at the Beijing Institute of Technology. All experimental protocols strictly adhered to the regulations governing the management of experimental animals and the animal ethics policy of the Beijing Institute of Technology.
(§2) The compounds were dissolved in reagent-grade soybean oil containing 10% ethanol to reach a drug concentration of 2.8 mg/mL. The rats in the experimental group received intraperitoneal injections of the compounds at a dose of 4.0 mg/kg/d for 28 consecutive days. As a control, the vehicle group was administered injections of reagent-grade soybean oil containing 10% ethanol. BrdU (Sigma-Aldrich, St. louis, MA, USA) solution, prepared in physiological saline at a concentration of 10 mg/mL, was administered to all rats on day 29. Each rat received two injections of BrdU at a dosage of 50 mg/kg, with a 2 h interval between injections. The rats were euthanized 24 h (or 28 days) after the final BrdU injection.
(§3) Two or four rats per group were anesthetized using pentobarbital sodium (70 mg/kg) and subsequently perfused with physiological saline. The brain tissue was carefully dissected and fixed in 4% paraformaldehyde at 4 °C for one week. Next, the brain tissue underwent dehydration using a phosphate-buffered saline (PBS) solution containing 20% to 30% sucrose. Finally, the brain tissue was cryosectioned into slices with a thickness of 30 μm, and eight slices were randomly selected for further analysis.
The assessment of new cell proliferation was conducted using BrdU staining. To eliminate endogenous peroxides, sections were exposed to 1% H2O2 for 30 min at RT. Cellular denaturation was achieved by treating the sections with 2 M HCl at 37 °C for 1 h, followed by rinsing in 0.1 M borate buffer (pH 8.5). Tissue sections were subjected to blocking in a solution consisting of 5% goat serum and 0.5% Triton X-100 in PBS at RT for 1–2 h. The specimens were then incubated overnight at 4 °C with a mouse primary antibody specific to BrdU (diluted at 1:500; Millipore, Billerica, MA, USA). Subsequently, the DAB kit was employed for 2 h of incubation at RT.
(§4) The data were presented as mean ± SEM (standard error of the mean) and visualized using GRAPHPAD PRISM 6 (Graphpad Software, La Jolla, CA, USA). Statistical analysis was conducted utilizing one-way analysis of variance (ANOVA) followed by a post hoc test. Subsequent to the statistical treatment, the observed discrepancies were determined to be statistically significant (p < 0.05).

[2] = tested on: newborn cells in the subgranular zone; assay: BrdU+ newborn cells, rats sacrificed 28 days after BrdU; details: nine-week-old rats (n = 2), i.p. 4.0 mg/kg/day for 28 days, BrdU pulse, Figure 7A
Experimental: The study employed a rat model, wherein nine-week-old rats were administered intraperitoneally with the compound at a dose of 4.0 mg/kg/day for 28 days and then treated with a pulse of BrdU. Instead of sacrificing the rats 24 h after the BrdU injections, the rats were sacrificed after another 28 days. The brains were then isolated and cryosectioned. Eight randomly selected slices were subjected to immunohistochemical staining. This staining enabled the co-localization of the BrdU-incorporated cells with the NeuN marker, enabling the definition of the compounds that could promote the differentiation of newborn neural progenitor cells into mature functional neurons. The compounds were dissolved in reagent-grade soybean oil containing 10% ethanol to reach a drug concentration of 2.8 mg/mL. The rats in the experimental group received intraperitoneal injections of the compounds at a dose of 4.0 mg/kg/d for 28 consecutive days. As a control, the vehicle group was administered injections of reagent-grade soybean oil containing 10% ethanol. BrdU (Sigma-Aldrich, St. louis, MA, USA) solution, prepared in physiological saline at a concentration of 10 mg/mL, was administered to all rats on day 29. Each rat received two injections of BrdU at a dosage of 50 mg/kg, with a 2 h interval between injections. The rats were euthanized 24 h (or 28 days) after the final BrdU injection. Two or four rats per group were anesthetized using pentobarbital sodium (70 mg/kg) and subsequently perfused with physiological saline. The brain tissue was carefully dissected and fixed in 4% paraformaldehyde at 4 °C for one week. Next, the brain tissue underwent dehydration using a phosphate-buffered saline (PBS) solution containing 20% to 30% sucrose. Finally, the brain tissue was cryosectioned into slices with a thickness of 30 μm, and eight slices were randomly selected for further analysis. The assessment of new cell proliferation was conducted using BrdU staining. To eliminate endogenous peroxides, sections were exposed to 1% H2O2 for 30 min at RT. Cellular denaturation was achieved by treating the sections with 2 M HCl at 37 °C for 1 h, followed by rinsing in 0.1 M borate buffer (pH 8.5). Tissue sections were subjected to blocking in a solution consisting of 5% goat serum and 0.5% Triton X-100 in PBS at RT for 1–2 h. The specimens were then incubated overnight at 4 °C with a mouse primary antibody specific to BrdU (diluted at 1:500; Millipore, Billerica, MA, USA). Subsequently, the DAB kit was employed for 2 h of incubation at RT. The differentiation process of NPCs was visualized through the utilization of the NeuN/BrdU double staining technique. Tissue sections were subjected to an incubation period in a blocking buffer at RT for 1 to 2 h. The specimens were exposed to a rabbit anti-NeuN antibody (diluted at 1:500, Abcam, Cambridge, MA, UK) and a primary antibody, BrdU (diluted at 1:500), overnight at 4 °C. Afterwards, the sections were treated with anti-mouse 488 and anti-rabbit TRITC secondary antibodies for 2 h at RT. The data were presented as mean ± SEM (standard error of the mean) and visualized using GRAPHPAD PRISM 6 (Graphpad Software, La Jolla, CA, USA). Statistical analysis was conducted utilizing one-way analysis of variance (ANOVA) followed by a post hoc test. Subsequent to the statistical treatment, the observed discrepancies were determined to be statistically significant (p < 0.05).

[3] = tested on: newborn neural progenitor cells (differentiation into mature neurons); assay: Differentiation stage of neurogenesis: NeuN/BrdU double staining, rats sacrificed 28 days after BrdU; details: nine-week-old rats (n = 4), i.p. 4.0 mg/kg, Figure 9, 4 mg/kg
Text: as §1
The study employed a rat model, wherein nine-week-old rats were administered intraperitoneally with the compound at a dose of 4.0 mg/kg/day for 28 days and then treated with a pulse of BrdU. Instead of sacrificing the rats 24 h after the BrdU injections, the rats were sacrificed after another 28 days. The brains were then isolated and cryosectioned. Eight randomly selected slices were subjected to immunohistochemical staining. This staining enabled the co-localization of the BrdU-incorporated cells with the NeuN marker, enabling the definition of the compounds that could promote the differentiation of newborn neural progenitor cells into mature functional neurons.
as §2, §3
The differentiation process of NPCs was visualized through the utilization of the NeuN/BrdU double staining technique. Tissue sections were subjected to an incubation period in a blocking buffer at RT for 1 to 2 h. The specimens were exposed to a rabbit anti-NeuN antibody (diluted at 1:500, Abcam, Cambridge, MA, UK) and a primary antibody, BrdU (diluted at 1:500), overnight at 4 °C. Afterwards, the sections were treated with anti-mouse 488 and anti-rabbit TRITC secondary antibodies for 2 h at RT.
as §4

SMILES	proliferation-promoting activity (number of BrdU+ newborn cells) ([1]; Figures 3-6, 4 mg/kg/day)	proliferative activity over the longer 28 day period (number of BrdU+ cells) [2]	proliferation-promoting activity (number of BrdU+ newborn cells) ([1]; Figures 3-6)	also measured
O=S(=O)(Nc1ccc(/C=C/c2ccc3c(c2)OCO3)cc1)C1CC1 [8k, (E)-N-(4-(2-(benzo[d][1, 3]dioxol-5-yl)vinyl)phenyl)cyclopropanesulfonamide]	significant proliferation-promoting activity; also recorded: greater propensity for enhancing activity	could promote the proliferation of progenitors	–	–
CS(=O)(=O)Nc1ccc(/C=C/Cc2ccc3c(c2)OCO3)cc1 [23i, (E)-N-(4-(3-(benzo[d][1, 3]dioxol-5-yl)prop-1-en-1-yl)phenyl)methanesulfonamide]	–	–	decreased	–
CC(=O)Nc1ccc(CN(C)Cc2ccc3c(c2)OCO3)cc1 [36a, N-(4-(((benzo[d][1, 3]dioxol-5-ylmethyl)(methyl)amino)methyl)phenyl)acetamide]	–	–	abolished the activity	–
N#CC1(C(=O)Nc2ccc(/C=C/c3ccc4c(c3)OCO4)cc2)CC1 [8e, (E)-N-(4-(2-(benzo[d][1, 3]dioxol-5-yl)vinyl)phenyl)-1-cyanocyclopropane-1-carboxamide]	–	–	did not display significant activity	–
CC(C)C(=O)NCc1ccc(/C=C/c2ccc3c(c2)OCO3)cc1 [42b, (E)-N-(4-(2-(benzo[d][1, 3]dioxol-5-yl)vinyl)benzyl)isobutyramide]	not and loss of activity	remained devoid of proliferative activity	–	–
CN(C)C(=O)Nc1ccc(/C=C/c2ccc3c(c2)OCO3)cc1 [8c, (E)-3-(4-(2-(benzo[d][1, 3]dioxol-5-yl)vinyl)phenyl)-1,1-dimethylurea]	–	could promote the proliferation of progenitors	significant proliferation-promoting activity	–
COc1cc(/C=C/c2ccc(NC(=O)c3ccccc3)c(F)c2)cc(OC)c1 [12f, (E)-N-(4-(3,5-dimethoxystyryl)-2-fluorophenyl)benzamide]	not and adversely affected the proliferative activity	–	–	–
CN(C)S(=O)(=O)Cc1ccc(/C=C/c2ccc3c(c2)OCO3)cc1 [8j, (E)-1-(4-(2-(benzo[d][1, 3]dioxol-5-yl)vinyl)phenyl)-N,N-dimethylmethanesulfonamide]	significant proliferation-promoting activity; also recorded: greater propensity for enhancing activity	–	–	–
COc1cc(/C=C/c2ccc(NC(=O)C(C)C)cc2)cc(OC)c1 [9b, (E)-N-(4-(3,5-dimethoxystyryl)phenyl)isobutyramide]	–	–	significant proliferation-promoting activity	–
CC(=O)Nc1ccc(/C(C#N)=C/c2ccc3c(c2)OCO3)cc1 [29a, (Z)-N-(4-(2-(benzo[d][1, 3]dioxol-5-yl)-1-cyanovinyl)phenyl)acetamide]	–	–	–	proliferation-promoting activity (number of BrdU+ positive cells) ([1]; nine-week-old rats (n = 4), Figure 8): inactive; neurogenesis-promoting activity (number of NeuN+ and BrdU+ cells), differentiation stage [3]: did not show activity; also recorded: no significant neurogenesis-promoting activity
COc1cc(C/C=C/c2ccc(NC(=O)C(C)C)cc2)cc(OC)c1 [24b, (E)-N-(4-(3-(3,5-dimethoxyphenyl)prop-1-en-1-yl)phenyl)isobutyramide]	–	did not exhibit significant proliferative activity	–	–
CC(C)C(=O)Nc1ccc(/C=C/Cc2ccc3c(c2)OCO3)cc1 [23b, (E)-N-(4-(3-(benzo[d][1, 3]dioxol-5-yl)prop-1-en-1-yl)phenyl)isobutyramide]	significant proliferation-promoting activity; also recorded: maintained the same proliferative activity as 9b	did not exhibit significant proliferative activity	–	–
CC(C)C(=O)Nc1ccc(C/C=C/c2ccc3c(c2)OCO3)cc1 [18b, (E)-N-(4-(3-(benzo[d][1, 3]dioxol-5-yl)allyl)phenyl)isobutyramide]	significant proliferation-promoting activity; also recorded: maintained the same proliferative activity as 9b	did not exhibit significant proliferative activity	–	–
O=C(Nc1ccc(/C=C/c2ccc3c(c2)OCO3)cc1)C1CCC1 [8d, (E)-N-(4-(2-(benzo[d][1, 3]dioxol-5-yl)vinyl)phenyl)cyclobutanecarboxamide]	significant proliferation-promoting activity; also recorded: greater propensity for enhancing activity	could promote the proliferation of progenitors	–	–
